Measurements from patent US12037344B2, “NLRP3 modulators” (INNATE TUMOR IMMUNITY, INC., priority 2018, dated 2024).
Read-outs that look alike come from different tables or passages of the source.

What was measured:
[1] = test system: THP-1 cells; experiment: Measurement of IL-1β production, hTRF protocol (second alternative procedure), THP-1 cells; format: cell-based, human; conditions: read-out: NLRP3 hILIB EC50
Outline: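 Compounds, dilution series starting at a final 10 μM, were incubated 2 hours at 37° C with PMA-differentiated THP-1 cells (50 ng/ml overnight; 50,000 cells/well, 2% FBS RPMI). Released IL-1β quantified in supernatant by hTRF kit with 1:40 antibody dilution, 4° C overnight, 665/615 nm ratio.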

[2] = biological target: T1, TLR7 (Homo sapiens, UniProt Q9NYK1); experiment: In vitro human TLR7 binding reporter assay (HEK-Blue, NF-kB/AP1-inducible SEAP); format: cell-based; conditions: read-out: TLR7 Agonist EC50
T1 construct: human HEK-Blue cells co-expressing a TLR7 or TLR8 gene
T1 sequence (Q9NYK1 27-1049): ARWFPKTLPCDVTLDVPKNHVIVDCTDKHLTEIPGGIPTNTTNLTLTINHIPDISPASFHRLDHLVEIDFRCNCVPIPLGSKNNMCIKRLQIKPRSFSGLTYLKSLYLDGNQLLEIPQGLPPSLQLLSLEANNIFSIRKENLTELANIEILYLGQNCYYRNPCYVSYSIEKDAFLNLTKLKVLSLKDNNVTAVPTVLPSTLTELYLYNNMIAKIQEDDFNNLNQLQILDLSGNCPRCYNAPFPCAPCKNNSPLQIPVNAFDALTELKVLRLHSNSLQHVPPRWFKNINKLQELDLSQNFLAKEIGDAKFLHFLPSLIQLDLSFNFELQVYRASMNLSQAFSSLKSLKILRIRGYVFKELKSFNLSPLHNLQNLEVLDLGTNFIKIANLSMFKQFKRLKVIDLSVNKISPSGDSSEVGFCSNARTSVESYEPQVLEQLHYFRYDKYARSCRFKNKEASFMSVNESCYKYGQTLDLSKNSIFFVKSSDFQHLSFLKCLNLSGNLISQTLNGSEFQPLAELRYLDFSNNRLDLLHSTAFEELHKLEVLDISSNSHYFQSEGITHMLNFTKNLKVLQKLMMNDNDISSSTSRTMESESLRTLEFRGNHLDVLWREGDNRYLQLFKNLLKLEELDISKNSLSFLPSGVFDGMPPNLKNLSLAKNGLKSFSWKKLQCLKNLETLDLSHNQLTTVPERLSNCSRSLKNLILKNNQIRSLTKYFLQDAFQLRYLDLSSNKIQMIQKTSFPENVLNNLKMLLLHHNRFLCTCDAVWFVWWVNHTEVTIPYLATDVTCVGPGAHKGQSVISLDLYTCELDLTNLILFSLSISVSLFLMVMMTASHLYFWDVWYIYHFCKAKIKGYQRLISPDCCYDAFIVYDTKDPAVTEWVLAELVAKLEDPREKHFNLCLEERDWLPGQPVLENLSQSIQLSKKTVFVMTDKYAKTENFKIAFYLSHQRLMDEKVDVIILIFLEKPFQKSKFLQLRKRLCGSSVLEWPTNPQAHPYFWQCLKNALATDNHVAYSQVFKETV
Outline: (§1)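 Cells are seeded and grown for 24 h. Compounds or DMSO are then added and incubated 18 h at 37 °C. Quanti-Blue is added, and SEAP is read after thirty minutes. EC50 values are normalized, with RLU from 50 μM reference standard setting 100% Ymax.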

[3] = biological target: T2, TLR8 (Homo sapiens, UniProt Q9NR97); experiment: In vitro human TLR8 binding reporter assay (HEK-Blue, NF-kB/AP1-inducible SEAP); format: cell-based; conditions: read-out: TLR8 Agonist EC50
T2 construct: human HEK-Blue cells co-expressing a TLR7 or TLR8 gene
T2 sequence (Q9NR97 27-1041): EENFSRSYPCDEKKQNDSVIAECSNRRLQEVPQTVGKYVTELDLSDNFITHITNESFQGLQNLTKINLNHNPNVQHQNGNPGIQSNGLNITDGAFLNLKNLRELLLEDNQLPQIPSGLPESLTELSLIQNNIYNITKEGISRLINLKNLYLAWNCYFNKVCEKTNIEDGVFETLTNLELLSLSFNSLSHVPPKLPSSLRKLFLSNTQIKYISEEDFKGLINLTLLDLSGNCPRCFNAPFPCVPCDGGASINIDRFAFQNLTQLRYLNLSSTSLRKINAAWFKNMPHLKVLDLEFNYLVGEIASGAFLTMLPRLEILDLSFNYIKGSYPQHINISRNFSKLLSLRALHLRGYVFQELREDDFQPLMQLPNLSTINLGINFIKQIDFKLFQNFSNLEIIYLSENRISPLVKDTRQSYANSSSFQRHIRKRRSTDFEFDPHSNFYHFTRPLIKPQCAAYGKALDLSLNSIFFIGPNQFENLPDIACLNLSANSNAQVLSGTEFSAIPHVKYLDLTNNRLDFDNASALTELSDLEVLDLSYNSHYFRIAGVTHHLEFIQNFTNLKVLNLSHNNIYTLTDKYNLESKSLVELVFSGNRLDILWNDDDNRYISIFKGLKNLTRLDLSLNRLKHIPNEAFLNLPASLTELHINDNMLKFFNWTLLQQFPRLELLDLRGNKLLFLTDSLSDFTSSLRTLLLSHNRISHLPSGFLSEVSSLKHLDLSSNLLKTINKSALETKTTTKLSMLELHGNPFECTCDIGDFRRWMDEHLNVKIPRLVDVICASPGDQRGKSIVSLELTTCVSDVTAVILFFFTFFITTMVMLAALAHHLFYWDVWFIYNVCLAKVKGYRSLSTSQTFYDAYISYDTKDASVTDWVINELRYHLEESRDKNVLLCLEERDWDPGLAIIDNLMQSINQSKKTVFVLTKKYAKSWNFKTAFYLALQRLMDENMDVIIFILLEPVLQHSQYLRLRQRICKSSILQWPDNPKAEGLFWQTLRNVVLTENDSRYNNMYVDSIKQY
Outline: as §1

[4] = Homo sapiens, THP-1, IL-1β production, human
[5] = Homo sapiens, THP-1, IL-1β production, human cells

Compound | EC50 ([1]; IL-1β production, human) | EC50 ([2]; activity range class) | EC50 ([3]; activity range class) | EC50 [1, 4] | EC50 [1, 5] | EC50 ([2]; activity range) | EC50 ([3]; activity range)
Nc1nc2cc(-c3ccn[nH]3)ccc2c2nn(CCNC(=O)c3ccccn3)nc12 [Example 159] | – | > 100 µM | > 100 µM | 0.68 µM | – | – | –
Nc1nc2cc(-c3cc[nH]n3)ccc2c2cn(CCCOc3ccc(F)cc3)nc12 [Example 6] | – | > 100 µM | > 100 µM | 0.56 µM | – | – | –
Cc1ccc(C(=O)NCCn2cc3c(n2)c(N)nc2cc(-c4cc[nH]n4)ccc23)cc1 [Example 41] | – | > 100 µM | > 100 µM | 0.8 µM | – | – | –
Nc1nc2cc(-c3ccn[nH]3)ccc2c2sc(CCCO)nc12 [Example 142, 3-[4-amino-7-(1H-pyrazol-3-yl)-[1,3]thiazolo[4,5-c]quinolin-2-yl]propan-1-ol] | – | > 100 µM | 20 to 100 µM | 1.5 µM | – | – | –
Nc1nc2cc(-c3cc[nH]n3)ccc2c2cn(CCNC(=O)c3ncc(C(F)(F)F)cc3F)nc12 [Example 91] | – | > 100 µM | 20 to 100 µM | 1.17 µM | – | – | –
CC(C)NCCn1cc2c(N)nc3cc(-c4ccn[nH]4)ccc3c2n1 [Example 275] | – | > 100 µM | > 100 µM | 1.73 µM | – | – | –
Nc1nc2cc(-c3cc[nH]n3)ccc2c2cn(CCNC(=O)c3cscn3)nc12 [Example 95] | – | > 100 µM | > 100 µM | 0.09 µM | – | – | –
COC1CCN(CCn2cc3c(N)nc4cc(-c5ccn[nH]5)ccc4c3n2)C1 (stereo not drawn) [Example 266] | – | > 100 µM | > 100 µM | 2.62 µM | – | – | –
Nc1nc2cc(-c3cc[nH]n3)ccc2c2c1cnn2C1CCOC1 (stereo not drawn) [Example 240] | – | > 100 µM | > 100 µM | 0.62 µM | – | – | –
CC(C)(Cn1cc2c(N)nc3cc(-c4cc[nH]n4)ccc3c2n1)NC(=O)c1ccc(F)cn1 [Example 293] | – | > 100 µM | > 100 µM | 0.6 µM | – | – | –
COCCn1cc2c(N)nc3cc(-c4cc[nH]n4)ccc3c2n1 [Example 207, 2-(2-methoxyethyl)-7-(1H-pyrazol-3-yl)-2H-pyrazolo[4,3-c]quinolin-4-amine] | – | > 100 µM | > 100 µM | 0.14 µM | – | – | –
CN(C)CCCn1cc2c(n1)c(N)nc1cc(-c3cc[nH]n3)ccc12 [Example 22] | – | 20 to 100 µM | > 100 µM | 0.63 µM | – | – | –
Cc1nc(Cn2cc3c(n2)c(N)nc2cc(-c4cc[nH]n4)ccc23)no1 [Example 174] | – | 1 to 20 µM | 20 to 100 µM | 0.23 µM | – | – | –
Nc1nc2cc(-c3cc[nH]n3)ccc2c2c1cnn2CCO [Example 217] | – | > 100 µM | > 100 µM | 1.17 µM | – | – | –

Continued, values first:

EC50 ([1]; IL-1β production, human) | EC50 ([2]; activity range class) | EC50 ([3]; activity range class) | EC50 [1, 4] | EC50 [1, 5] | EC50 ([2]; activity range) | EC50 ([3]; activity range) | Compound
0.39 µM | > 100 µM | > 100 µM | – | – | – | – | COCC(C)n1cc2c(N)nc3cc(-c4cc[nH]n4)ccc3c2n1 (single isomer, unassigned) [Example 338]
– | > 100 µM | > 100 µM | 0.22 µM | – | – | – | Nc1nc2cc(-c3cc[nH]n3)ccc2c2nn(C3CCCOC3)cc12 (stereo not drawn) [Example 312]
– | – | – | – | 1.55 µM | > 100 µM | > 100 µM | Nc1nc2cc(-c3cc[nH]n3)ccc2c2cn(C[C@@H](O)CO)nc12 [Example 398]
– | – | – | – | 7.37 µM | > 100 µM | > 100 µM | Nc1nc2cc(-c3cc[nH]n3)ccc2c2nn(CCC(=O)N3CCCC3)cc12 [Example 508]
– | – | – | – | 0.27 µM | > 100 µM | > 100 µM | CO[C@@H](CO)Cn1cc2c(n1)c(N)nc1cc(-c3cc[nH]n3)ccc12 [Example 459]
– | > 100 µM | > 100 µM | 0.17 µM | – | – | – | Nc1nc2cc(-c3cc[nH]n3)ccc2c2nn(C[C@@H]3CCCO3)cc12 [Example 330]
– | – | – | – | 1.82 µM | > 100 µM | > 100 µM | CCN(CC)C(=O)C(C)n1cc2c(N)nc3cc(-c4ccn[nH]4)ccc3c2n1 (stereo not drawn) [Example 583]
– | – | – | – | 2.18 µM | > 100 µM | > 100 µM | CS(=O)(=O)NCCCn1cc2c(N)nc3cc(-c4ccn[nH]4)ccc3c2n1 [Example 586]
– | – | – | – | 21.2 µM | > 100 µM | > 100 µM | CC(C)(Cn1cc2c(N)nc3cc(-c4ccn[nH]4)ccc3c2n1)C(=O)NCC1CCOCC1 [Example 602]
– | – | – | – | 1.92 µM | > 100 µM | > 100 µM | Nc1nc2cc(-c3cc[nH]n3)ccc2c2[nH]c(CNC(=O)C3CCCCO3)cc12 (stereo not drawn) [Example 413]
– | – | – | – | 1.98 µM | > 100 µM | > 100 µM | CC(C)(Cn1cc2c(N)nc3cc(-c4ccn[nH]4)ccc3c2n1)C(=O)NC1CCC1 [Example 598]
– | – | – | – | 0.7 µM | > 100 µM | > 100 µM | CC(C(=O)NC1CCC1)n1cc2c(N)nc3cc(-c4ccn[nH]4)ccc3c2n1 (stereo not drawn) [Example 562]
– | > 100 µM | > 100 µM | 0.83 µM | – | – | – | COC(C)(C)Cn1cc2c(N)nc3cc(-c4cc[nH]n4)ccc3c2n1 [Example 322]
– | – | – | – | 0.95 µM | > 100 µM | > 100 µM | CC(C(=O)N(C)C)n1cc2c(N)nc3cc(-c4ccn[nH]4)ccc3c2n1 (stereo not drawn) [Example 561]
– | > 100 µM | > 100 µM | 0.64 µM | – | – | – | Nc1nc2cc(-c3cc[nH]n3)ccc2c2nn(CC(O)CC(F)(F)F)cc12 (single isomer, unassigned) [Example 378]
– | – | – | – | 0.7 µM | > 100 µM | > 100 µM | CNC(=O)C1(Cn2cc3c(N)nc4cc(-c5ccn[nH]5)ccc4c3n2)CC1 [Example 608]
– | – | – | – | 0.07 µM | > 100 µM | > 100 µM | N#CCCn1cc2c(N)nc3cc(-c4cc[nH]n4)ccc3c2n1 [Example 395]
– | > 100 µM | > 100 µM | 0.43 µM | – | – | – | COCC(O)Cn1cc2c(N)nc3cc(-c4cc[nH]n4)ccc3c2n1 (stereo not drawn) [Example 307]
– | – | – | – | 19.7 µM | > 100 µM | > 100 µM | CC(C(=O)N1CCS(=O)(=O)CC1)n1cc2c(N)nc3cc(-c4ccn[nH]4)ccc3c2n1 (stereo not drawn) [Example 575]
0.89 µM | > 100 µM | > 100 µM | – | – | – | – | Nc1nc2cc(-c3cc[nH]n3)ccc2c2nn(C3CCCC3O)cc12 (single isomer, unassigned) [Example 316]
